Source: ChEMBL document CHEMBL1156373, “Sesquiterpenes from the Formosan stolonifer Tubipora musica” (2001)
In brackets after ≈: the same amount, converted by molar mass.

Tested on: P388
Experiment: Cytotoxicity against mouse P388 cells
Type: functional
Conditions: read-out: ED50 (the source's name)

SMILES	EC50 [µg/mL]
CC(=O)OCC1=CC(C)=C[C@@]2(C)C[C@]3(C[C@H]12)C(=O)O[C@H]1O[C@H]13 [SPIROTUBIPOLIDE]	3.24 (≈ 10.6 µM)
CC1=CC=C[C@@]2(C)C[C@@H]3OC(=O)C(C)=C3C[C@@H]12 [TUBIPOLIDE B]	3.69 (≈ 16 µM)
CC(=O)OCC1=CC=C[C@@]2(C)C=C3OC(=O)C(C)=C3C[C@@H]12 [TUBIPOLIDE G]	4.01 (≈ 14 µM)
